Test results taken from ChEMBL document CHEMBL3763040, “3,5-Bis(3-alkylaminomethyl-4-hydroxybenzylidene)-4-piperidones: A Novel Class of Potent Tumor-Selective Cytotoxins” (J Med Chem, 2016).

Experiments:
[1] = Antiproliferative activity against human Molt4/C8 cells assessed as cell survival after 72 hrs by coulter counter analysis; assay type: functional, cell-based; details: MOLT-4, 72 h
[2] = system: HL-60; test: Selectivity index, ratio of CC50 for HGF to CC50 for human HL60 cells; details: pooled result: one value given for 3 cell lines, strains, targets or settings
[3] = Cytotoxicity against human HSC4 cells assessed as cell death after 48 hrs by MTT assay; assay type: functional; details: HSC-4, 48 h
[4] = system: HSC-2; test: Selectivity index, ratio of CC50 for HGF to CC50 for human HSC2 cells; details: pooled result: one value given for 3 cell lines, strains, targets or settings
[5] = Cytotoxicity against human HL60 cells assessed as cell death after 48 hrs by MTT assay; assay type: functional; details: HL-60, 48 h
[6] = system: HSC-4; test: Selectivity index, ratio of CC50 for HGF to CC50 for human HSC4 cells; details: pooled result: one value given for 3 cell lines, strains, targets or settings
[7] = system: CCRF-CEM; test: Antiproliferative activity against human CEM cells assessed as cell survival after 72 hrs by coulter counter analysis; assay type: functional, cell-based
[8] = Cytotoxicity against HPLF assessed as cell death after 48 hrs by MTT assay; details: human, HPLF cells
[9] = Cytotoxicity against human HSC3 cells assessed as cell death after 48 hrs by MTT assay; assay type: functional; details: HSC-3, 48 h
[10] = system: HSC-3; test: Selectivity index, ratio of CC50 for HGF to CC50 for human HSC3 cells; details: pooled result: one value given for 3 cell lines, strains, targets or settings
[11] = Cytotoxicity against HPC assessed as cell death after 48 hrs by MTT assay; details: human, HPC cells
[12] = Cytotoxicity against human HSC2 cells assessed as cell death after 48 hrs by MTT assay; assay type: functional; details: HSC-2, 48 h
[13] = system: L1210; test: Antiproliferative activity against mouse L1210 cells assessed as cell survival after 48 hrs by coulter counter analysis; assay type: functional, cell-based; details: L1210, 48 h
[14] = Cytotoxicity against HGF assessed as cell death after 48 hrs by MTT assay; details: human, HGF cells
[15] = system: CCRF-CEM; test: Potency index, ratio of melphalan IC50 to compound IC50 for antiproliferative activity against human CEM cells; assay type: functional
[16] = Potency index, ratio of melphalan IC50 to compound IC50 for antiproliferative activity against human Molt4/C8 cells; assay type: functional, MOLT-4
[17] = Cytotoxicity against human HCT15 cells after 48 hrs by sulforhodamine B assay; assay type: functional, cell-based; details: HCT-15, 48 h
[18] = Cytotoxicity against human HCT116 cells after 48 hrs by sulforhodamine B assay; assay type: functional, cell-based; details: HCT-116, 48 h
[19] = system: KM12; test: Cytotoxicity against human KM12 cells after 48 hrs by sulforhodamine B assay; assay type: functional, cell-based; details: KM12, 48 h
[20] = Cytotoxicity against human COLO205 cells after 48 hrs by sulforhodamine B assay; assay type: functional, cell-based; details: COLO 205, 48 h
[21] = system: HT-29; test: Cytotoxicity against human HT-29 cells after 48 hrs by sulforhodamine B assay; assay type: functional, cell-based; details: HT-29, 48 h
[22] = Cytotoxicity against human HCC2998 cells after 48 hrs by sulforhodamine B assay; assay type: functional, cell-based; details: HCC 2998, 48 h
[23] = Cytotoxicity against human SW620 cells after 48 hrs by sulforhodamine B assay; assay type: functional, cell-based; details: SW-620, 48 h

Row | SMILES | IC50 [1] | Selectivity Index [2] | CC50 [3] | Selectivity Index [4] | CC50 [5] | Selectivity Index [6] | IC50 [7] | CC50 at 48 h [8] | CC50 [9] | Selectivity Index [10] | CC50 at 48 h [11] | CC50 [12] | IC50 [13] | CC50 at 48 h [14] | Ratio IC50 [16] | also measured
1 | O=C(/C=C/c1ccc(O)cc1)/C=C/c1ccc(O)cc1 | 3.69 µM | 4.21 | 4.9 µM | 3.09 | 3.9 µM | 3.35 | 3.38 µM | 16 µM | 5.4 µM | 3.04 | 9.2 µM | 5.3 µM | 7.74 µM | 24 µM | – | –
2 | Cl.Cl.Cl.O=C1/C(=C/c2ccc(O)c(CN3CCOCC3)c2)CNC/C1=C\c1ccc(O)c(CN2CCOCC2)c1 | 1.6 µM | 5.11 | 1.1 µM | 6.05 | 0.71 µM | 3.3 | 1.67 µM | 3.8 µM | 1 µM | 3.63 | 3.4 µM | 0.6 µM | 7.78 µM | 3.7 µM | 2.03 | Ratio IC50 [15]: 1.48
3 | O=C1/C(=C/c2ccc(O)cc2)CCC/C1=C\c1ccc(O)cc1 | 1.06 µM | >105 | 62 µM | >12.5 | 1.9 µM | >3.23 | 6.96 µM | > 200 µM | 50 µM | >4 | > 200 µM | 16 µM | 10.7 µM | > 200 µM | 3.06 | –
4 | N[C@@H](Cc1ccc(N(CCCl)CCCl)cc1)C(=O)O | – | 150 | 32 µM | 24.1 | 1.4 µM | 6.56 | – | – | 25 µM | 8.4 | – | 8.7 µM | – | – | – | –
5 | O=c1[nH]cc(F)c(=O)[nH]1 [FLUOROURACIL] | – | – | – | – | – | – | – | – | – | – | – | – | – | – | – | CC50 [17]: > 2510 µM; TGI [17]: > 1860 µM; CC50 [18]: > 2510 µM; TGI [18]: > 1860 µM; CC50 [19]: > 2510 µM; TGI [19]: > 1860 µM; CC50 [20]: > 2510 µM; TGI [20]: > 1860 µM; CC50 [21]: > 2510 µM; TGI [21]: > 1860 µM; CC50 [22]: > 2510 µM; TGI [22]: > 1860 µM; CC50 [23]: > 2510 µM; TGI [23]: > 1860 µM
